Source: US20130045991A1, “NEUROPROTECTIVE MODULATION OF NMDA RECEPTOR SUBTYPE ACTIVITIES” (THE UNIVERSITY OF BRITISH COLUMBIA, priority 2005, published 2013)

Key:
[1] = tested on: synaptic NMDA receptors; experiment: mEPSC recording, NMDA receptor-mediated component; type: cell-based, rat
[2] = tested on: cortical cultures; experiment: Oxygen and glucose deprivation (OGD), in vitro stroke model; type: cell-based, rat; conditions: 1 h OGD; NVP-AAM077 0.4 μM or Ro 25-6981 0.5 μM; apoptosis 20 h after OGD
Excerpt: Taking advantage of the finding of the opposing roles of NR2A- and NR2B-containing NMDA receptors in mediating cell survival and death, one aspect of the invention involves modulating the activity of the two subpopulations of receptors to ameliorate neuronal injury following acute brain insults, such as stroke and brain trauma. To illustrate this aspect of the invention, we employed a well-characterized in vitro stroke model, oxygen and glucose deprivation (OGD) (Goldberg et al., 1993; Aarts et al., 2002). Cortical cultures of 11-14 DIV were exposed to an anaerobic atmosphere for 1 h in a glucose-free solution in the absence or the presence of either NVP-AAM077 (0.4 μM) or Ro 25-6981 (0.5 μM). Neuronal apoptosis was quantitatively determined 20 h after OGD.
To visualize injured neurons, Hoechst-33342 (10 μg/ml) was added to the culture medium 20 h after treatments and incubated for 45 min at 37 °C. Images were taken with a Leica DMIRE2 fluorescence microscope. Quantitative assessment of neuronal apoptosis was performed 20 h following treatments using a Cell Death Detection ELISAPLUS Kit (Roche Applied Science). Absorbance readings were determined using a spectrophotometric microplate reader. Data analyses were carried out according to the manufacturer's instructions. Data are expressed as the difference in apoptosis relative to control and are expressed as a percentage. […]

[3] = tested on: NMDA receptors (NR2A- and NR2B-containing); experiment: Whole-cell currents evoked by NMDA in cultured cortical neurons; type: cell-based, rat; conditions: for percentage blockade of NMDA-induced currents, applied alone: NVP-AAM077 0.4 μM or Ro25-6981 0.5 μM bath applied alone, 10 μM glycine, 5 μM strychnine, -60 mV; for percentage blockade of NMDA-induced currents, applied alone / percentage blockade of NMDA-induced currents, applied after blockade by the other antagonist: 50 μM NMDA; for percentage blockade of NMDA-induced currents, applied after blockade by the other antagonist: sequential application, NVP-AAM077 0.4 μM, Ro25-6981 0.5 μM
[4] = tested on: middle cerebral artery occlusion (MCAo); experiment: MCAo focal ischemic stroke model, pretreatment; type: in vivo, rat; conditions: for neurological function (behavioral tests) / infarct area: i.v. 30 min before 1-h MCAo; for neurological function (behavioral tests): 24 h after onset; for infarct area: NVP-AAM077 2.4 mg/kg, Ro 25-6981 6 mg/kg, 24 h
Procedure: This aspect of the invention was also illustrated in vivo using a rat focal ischemic stroke model—middle cerebral artery occlusion (MCAo) (Aarts et al., 2002; Bederson et al., 1986). We first infused NVP-AAM077 (2.4 mg/kg), Ro 25-6981 (6 mg/kg (Loschmann et. al., 2004)) or vehicle (saline) intravenously in the rats 30 min prior to stroke onset. The animals were then subjected to a 1-h transient ischemic stroke induced by MCAo. This relatively short duration of ischemia was chosen to unmask the potential neuroprotective effects mediated by NR2A-containing receptors activated during the stroke challenge. Neurological score and cerebral infarction were examined 24 h after the MCAo onset. […] Together, these observations indicate that both NR2A- and NR2B-containing NMDA receptor subtypes are activated during stroke, exerting opposing effects on ischemic brain damage.
Transient cerebral focal ischemia was produced by middle cerebral artery occlusion (MCAo) as described (Aarts et al., 2002; Bederson et al., 1986; Longa et al., 1989). Briefly, male Sprague-Dawley rats (Charles River Laboratories) weighing ˜300 g were anesthetized and MCAo was achieved by introducing a 3-0 monofilament suture into the MCA via the internal carotid artery. Body temperature was maintained at 37.0±0.5° C., and blood pressure and blood gases were monitored during the experiments. Animals were sacrificed 24 h following MCAo onset. Cerebral infarction was analyzed using brain sections stained with hematoxylin and eosin (H & E) or 2,3,5-triphenyltetrazolium chloride (TTC). 10 min before the animals were sacrificed, two tests, the postural reflex test to examine upper body posture (Bederson et al., 1986) and the forelimb placing test to examine sensorimotor integration in forelimb placing responses to visual, tactile, and proprioceptive stimuli (De Ryck et al., 1989), were performed to grade neurological function on a scale of 0 to 12 (0=normal, 12=worst). In the pretreatment study, a single bolus of drugs (NR2A-specific antagonist NVP-AAM077 (2.4 mg/kg) or NR2B specific antagonist Ro 25-6981 (6 mg/kg) or vehicle (saline)) was infused intravenously 30 min before a 1-h MCAo. For post-treatment experiments, animals were subjected to a 1.5-h MCAo and drug treatments (glycine, 800 mg/kg; NVP-AAM077 and Ro 25-6981 at the same doses as in the pretreatment study) were then given via intraperitoneal injection (i.p.) 3 h after reperfusion (4.5 h after the onset of MCAo).

[5] = tested on: cortical neurons; experiment: NMDA-mediated excitotoxicity: neuronal apoptosis in cortical cultures; type: cell-based, rat; conditions: 50 μM NMDA plus 10 μM glycine 20 min, assayed 20 h after; APV 50 μM, Ro25-6981 0.5 μM, NVP-AAM077 0.4 μM
Procedure: (§1) Mature neurons (11-14 DIV) were used for experiments.
(§2) To visualize injured neurons, Hoechst-33342 (10 μg/ml) was added to the culture medium 20 h after treatments and incubated for 45 min at 37 °C. Images were taken with a Leica DMIRE2 fluorescence microscope. Quantitative assessment of neuronal apoptosis was performed 20 h following treatments using a Cell Death Detection […] Kit (Roche Applied Science). Absorbance readings were determined using a spectrophotometric microplate reader. Data analyses were carried out according to the manufacturer's instructions. Data are expressed as the difference in apoptosis relative to control and are expressed as a percentage.

[6] = tested on: cortical neurons; experiment: Glycine pretreatment before NMDA-induced neuronal apoptosis; type: cell-based, rat; conditions: co-applied with glycine; NVP-AAM077 0.4 μM, Ro25-6981 0.5 μM
Procedure: as §1, §2

[7] = tested on: cortical neurons; experiment: Neuronal apoptosis under basal, non-stimulated conditions; type: cell-based, rat; conditions: no bicuculline stimulation
Procedure: Under bicuculline incubation, the increased action potential-dependent synaptic release of glutamate may lead to activation of extrasynaptic NMDA receptors by glutamate spillover.
as §2

Row | SMILES | effect on the remainder (non-NR2B) of the synaptic NMDA currents ([1]; NVP-AAM077 0.4 μM, n=5) | effect on OGD-induced neuronal apoptosis [2] | percentage blockade of NMDA-induced currents, applied alone [3] | percentage blockade of NMDA-induced currents, applied after blockade by the other antagonist [3] | increase in total infarct volume compared with saline-treated animals ([4]; 2.4 mg/kg i.v. 30 min before 1-h MCAo, 24 h after MCAo onset) [%] | neurological function (behavioral tests) [4] | infarct area [4] | effect on NMDA-induced neuronal apoptosis/damage [5] | effect on the neuroprotective effect of glycine pretreatment [6] | neuronal apoptosis after incubation for 4 h [7] | neuronal apoptosis after incubation for 48 h [7] | effect on slow NMDA receptor-mediated component of mEPSCs ([1]; -60 mV, zero added Mg2+, APV 50 μM, Ro 25-6981 0.5 μM) | NR2B-containing receptor-mediated (Ro 25-6981-sensitive) component of synaptic NMDA currents ([1]; Ro 25-6981 0.5 μM, n=5) [%] | reduction in the percentage of NMDA current inhibition by Ro25-6981 following NVP-AAM077 blockade ([3]; alone vs after NVP-AAM077 0.4 μM) [%] | decrease of total infarct volume compared with saline-treated animals ([4]; 6 mg/kg i.v. 30 min before 1-h MCAo, 24 h after MCAo onset) [%] | effect on NVP-AAM077 (48 h)-induced apoptosis [7]
1 | C[C@H](NC(c1cccc2[nH]c(=O)c(=O)[nH]c12)P(=O)(O)O)c1ccc(Br)cc1 (stereo partly drawn) [NVP-AAM077] | largely eliminated | significantly enhanced OGD-induced neuronal apoptosis | 42.9%±5.9% | 43.4%±12.4% | 67.0±17.9 | trend toward poorer neurological function | increased | significantly enhanced | prevented | failed to increase neuronal apoptosis | significant increase in neuronal apoptosis | – | – | – | – | –
2 | C[C@@H](CN1CCC(Cc2ccccc2)CC1)[C@@H](O)c1ccc(O)cc1 (relative stereo) [Ro 25-6981, [R-(R*,S*)]-α-(4-Hydroxyphenyl)-β-methyl-4-(phenylmethyl)-1-piperidinepropanol] | – | drastically reduced | 34.6%±1.8% | 29.0%±3.3% | – | significant protective effect | decreased | prevented NMDA-induced neuronal apoptosis | not by affected | – | did not increase neuronal apoptosis | significantly reduced | 32.4±3.6 | 5.6 | 67.8±4.3 | prevented
